Test results reported in patent publication US12564580B2, “Mitochondria-targeted isoketal/isolevuglandin scavengers and uses thereof” (Vanderbilt University, priority 2020, dated 2026).

Legend:
[1] = system: human aortic endothelial cells (HAEC); assay: Mitochondrial superoxide in human aortic endothelial cells stimulated with angiotensin II plus TNFα (mitoSOX HPLC); assay type: cell-based
Procedure: FIGS. 9A and B show the effect of mito2HOBA on mitochondrial superoxide and cardiolipin oxidation in human aortic endothelial cells induced by angiotensin II plus TNFα. (A) Mitochondrial superoxide was measured by HPLC analysis of mitoSOX-superoxide specific product, mito-2-hydroxyethidium (Mito-2OH-Et+). […] (B) Cardiolipin oxidation induced by Angiotensin II+TNFα measured my LC/MS. […] Data are mean±SEM. *P<0.01 vs Control, **P<0.01 vs Angiotensin II+TNFα (n=4).
Human aortic endothelial cells (HAEC) were purchased from Lonza (Chicago, IL) and cultured in EGM-2 medium supplemented with 2% FBS but without antibiotics. On the day before the study, the FBS concentration was reduced to 1%.
We tested if mito2HOBA reduces mitochondrial oxidative stress in human aortic endothelial cells (HAEC) stimulated with angiotensin II plus TNFα for 4-hours (FIG. 9). Indeed, supplementation of HAEC with mito2HOBA (50 nM) reduced mitochondrial superoxide production stimulated by TNF[…] and Ang II as measured by accumulation of specific superoxide-MitoSOX product, 2-OH-Mito-Ethidium.

[2] = system: Intact mouse kidney mitochondria, complex II respiration; assay: Respiration of isolated kidney mitochondria with complex II substrate succinate after acute IsoLG/IsoLG-PE treatment; assay type: biochemical; settings: acute addition of a low dose (0.5 μM printed elsewhere in the source)
Procedure: FIGS. 1A-1C show acute treatment with IsoLG or IsoLG-PE impairs mitochondrial respiration. (A) Intact mouse kidney mitochondria were incubated (5 min) with ethanol as vehicle (Sham), IsoLG (20 μM) or IsoLG-PE (20 μM) and then diluted with respiration buffer 20-fold prior to addition of Glutamate and Malate, ADP (50 μM) and measurements of oxygen consumption in State III. *P<0.001 vs Sham, **P<0.03 vs IsoLG. (B) Oxygen consumption in the presence of complex I substrates Glutamate+Malate and ADP (State III) and Respiratory Control Ratio (State III/State IV, %) in intact kidney mitochondria treated with vehicle, IsoLG (1.5 μM) or IsoLG-PE (1.5 μM) in the respiration chamber. (C) State III respiration and Respiratory Control Ratio (State III/State IV, %) in presence of complex II substrate Succinate and ADP following addition of vehicle, IsoLG (1.5 μM) or IsoLG-PE (1.5 μM) in the respiration chamber.
Complex I is a key component of mitochondrial oxidative phosphorylation. Inactivation of complex I can lead to reduced ATP production and tissue damage. Addition of IsoLG to cells produces both protein—adducts and IsoLG-phosphatidylethanolamine adducts (IsoLG-PE) which can independently contribute to mitochondrial dysfunction. The present inventors tested whether IsoLG or IsoLG-PE could contribute to mitochondrial dysfunction. […]

complex I = assay: Complex I activity in mouse kidney mitochondrial lysate; settings: mitochondrial lysates treated with a bolus of IsoLG
Procedure: (C) Mouse kidney mitochondrial lysate was acutely treated with DMSO (Control), ethanolamine, spermine, L-lysine, IsoLG (1.5 μM) or IsoLG modified-ethanolamine (IsoLG-ETN, 1.5 μM), -spermine (IsoLG-Sper, 1.5 μM), L-lysine (IsoLG-Lys, 1.5 μM), -phosphatidylethanolamine (IsoLG-PE, 1.5 μM) prior to measurements of complex I activity expressed as a % of Control (100%).
OXPHOS specific enzyme activities in submitochondrial particles (SMP) were measured using a Varian Cary 300 Bio UV/Vis spectrophotometer with temperature controlling cell holder. Briefly, SMP were prepared by sonication of isolated organelles. Complex I activity was monitored in triplicate samples as the reduction of 10 μM decylubiquinone at 272 nm by 15 μg of mitochondrial protein with 40 μM NADH.
To test this hypothesis, the present inventors studied the activity of complex I and complex II in mitochondrial lysates treated with a bolus of IsoLG.

complex II [3] = target: complex II (Mus musculus, UniProt Q8K2B3+Q9CQA3+Q9CXV1+Q9CZB0); assay: Complex II activity in mouse kidney mitochondrial lysate; assay type: biochemical; settings: mitochondrial lysates treated with a bolus of IsoLG
Sequence of complex II (Mus musculus, UniProt Q8K2B3+Q9CQA3+Q9CXV1+Q9CZB0) (Q8K2B3 43-664): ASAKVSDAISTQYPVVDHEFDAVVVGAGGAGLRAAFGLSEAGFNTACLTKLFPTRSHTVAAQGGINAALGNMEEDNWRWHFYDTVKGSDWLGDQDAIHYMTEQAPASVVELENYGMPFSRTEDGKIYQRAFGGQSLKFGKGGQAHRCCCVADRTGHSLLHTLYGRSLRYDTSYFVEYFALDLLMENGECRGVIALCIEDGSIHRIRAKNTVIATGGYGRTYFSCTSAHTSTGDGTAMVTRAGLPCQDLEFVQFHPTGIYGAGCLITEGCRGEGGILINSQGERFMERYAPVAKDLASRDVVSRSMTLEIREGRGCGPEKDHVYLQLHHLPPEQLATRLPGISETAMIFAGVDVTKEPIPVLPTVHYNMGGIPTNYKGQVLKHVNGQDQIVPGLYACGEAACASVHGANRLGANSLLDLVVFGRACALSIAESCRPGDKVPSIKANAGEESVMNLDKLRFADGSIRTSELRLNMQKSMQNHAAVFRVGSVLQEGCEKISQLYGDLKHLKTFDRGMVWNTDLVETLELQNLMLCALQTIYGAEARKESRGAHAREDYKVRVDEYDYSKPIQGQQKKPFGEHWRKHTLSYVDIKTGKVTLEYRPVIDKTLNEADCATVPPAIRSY
Sequence of complex II (Mus musculus, UniProt Q8K2B3+Q9CQA3+Q9CXV1+Q9CZB0) (Q9CQA3 31-282): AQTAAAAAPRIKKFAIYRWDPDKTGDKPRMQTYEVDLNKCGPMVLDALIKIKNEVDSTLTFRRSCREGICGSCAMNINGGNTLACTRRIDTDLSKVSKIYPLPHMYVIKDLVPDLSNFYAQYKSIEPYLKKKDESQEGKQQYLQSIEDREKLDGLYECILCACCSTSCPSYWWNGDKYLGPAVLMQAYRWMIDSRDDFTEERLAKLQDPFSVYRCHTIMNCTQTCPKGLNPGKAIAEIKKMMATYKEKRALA
Sequence of complex II (Mus musculus, UniProt Q8K2B3+Q9CQA3+Q9CXV1+Q9CZB0) (Q9CZB0 30-169): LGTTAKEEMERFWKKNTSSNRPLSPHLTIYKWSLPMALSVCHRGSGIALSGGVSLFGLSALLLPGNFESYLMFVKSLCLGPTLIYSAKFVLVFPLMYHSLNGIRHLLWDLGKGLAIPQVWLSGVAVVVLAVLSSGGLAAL
Sequence of complex II (Mus musculus, UniProt Q8K2B3+Q9CQA3+Q9CXV1+Q9CZB0) (Q9CXV1 57-159): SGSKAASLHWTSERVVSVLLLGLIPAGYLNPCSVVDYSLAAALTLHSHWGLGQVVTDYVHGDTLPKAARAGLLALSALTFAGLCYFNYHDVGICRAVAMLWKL

[4] = system: Intact mouse kidney mitochondria, complex I-mediated respiration; assay: Respiration of isolated kidney mitochondria with complex I substrates glutamate+malate after acute IsoLG/IsoLG-PE treatment; assay type: biochemical
[5] = system: C57Bl/6J mice, Ang II-induced hypertension; assay: Blood pressure in angiotensin II model of hypertension (tail-cuff and telemetry); assay type: in vivo, mouse; settings: same molar dose of untargeted 2HOBA (0.17 mmol/L) in drinking water
From the text: FIGS. 10A-D show the effect of mito2HOBA on angiotensin II-induced hypertension and accumulation of mitochondrial isoLGs protein adducts. (A) Blood pressure tail-cuff measurements in male Sham or angiotensin II-infused mice supplied with mito2HOBA in drinking water (0.1 g/L) or equimolar amount of untargeted analog 2HOBA (0.17 mmol/L). (B) Telemetry studies of blood pressure in angiotensin II-infused mice supplied with mito2HOBA or plain water as a vehicle. (C) Representative LC/MS/MS chromatograms of isoLG-Lysyl-Lactam adduct; (D) isoLG-Lys-Lactam levels in kidney mitochondria isolated from Sham or angiotensin II-infused mice supplied with mito2HOBA. Results are mean±SEM. *P<0.01 vs Sham, **P<0.01 vs Ang II (n=8).
Hypertension was induced by angiotensin II ([…]) as described previously. To test the therapeutic potential of scavenging of mitochondrial isoLGs, wild-type C57B1/6J male and female mice (Jackson Labs) received saline or angiotensin II minipump placement, and provided with the plain water (vehicle) or mito2HOBA in the drinking water (0.1 g/liter). Blood pressure was monitored by the telemetry and tail-cuff measurements as previously described. The Vanderbilt Institutional Animal Care and Use Committee approved the procedures (Protocol M1700207). Simple randomization was used to select animals for sham, angiotensin II or mito2HOBA groups for equal chance of being allocated to treatment groups.
To test a functional role of mitochondrial isoLGs in hypertension, we used an Ang II model of hypertension, and monitored blood pressure by tail-cuff (FIG. 10A) and telemetry (FIG. 10B). […] Infusion of wild-type C57B1/6J mice with Ang II (0.7 mg/kg/day) increased systolic blood pressure to 162 mm Hg.

complex II [6] = target: complex II (Mus musculus, UniProt Q8K2B3); assay: Glutamate-driven respiration of kidney mitochondria with Complex II inhibitor malonate; settings: malonate 5 mM, Glutamate+Malate
Sequence of complex II (Mus musculus, UniProt Q8K2B3) (Q8K2B3 43-664): as the sequence (Q8K2B3 43-664) above
Sequence of complex II (Mus musculus, UniProt Q8K2B3) (Q9CQA3 31-282 partner): as the sequence (Q9CQA3 31-282) above
Sequence of complex II (Mus musculus, UniProt Q8K2B3) (Q9CZB0 30-169 partner): as the sequence (Q9CZB0 30-169) above
Sequence of complex II (Mus musculus, UniProt Q8K2B3) (Q9CXV1 57-159 partner): as the sequence (Q9CXV1 57-159) above
Procedure: To study the mitochondrial function, the combination of glutamate and malate (GM) or succinate was used as substrates. Since glutamate can be converted via transamination to α-ketoglutarate and further to succinate, the present inventors used complex II inhibitor malonate to define specific complex I respiration. The basal respiration (1) was measured in mitochondria supplemented with respiratory substrates. Then ADP was added to measure the coupled respiration (2). The proton leak (3) was determined after addition of complex V inhibitor oligomycin A. The uncoupled respiration (4) was measured after supplementation with CCCP. Finally, antimycin A plus rotenone were added to assess non-mitochondrial respiration (5) as described previously [32].
Mitochondria were isolated from 12-14-week-old male C57BL6/6J mouse kidneys. For respiration studies, electrons were entered at either complex I (glutamate+malate as substrate) or complex II (succinate as substrate). […] Since kidney mitochondria are much less studied than mitochondria from other organs, the present inventors used the specific inhibitor of Complex II malonate (5 mM) to evaluate the alternative pathways for glutamate oxidation. The Complex II mediated respiration was defined as malonate-inhibited oxygen consumption while Complex I specific respiration was defined as malonate resistant oxygen consumption. […]

NCc1ccc(O)cc1 [4HOBA, 4-hydroxybenzylamine] was tested, and the “mitochondrial superoxide (mitochondrial oxidative stress)” value ([1]; 4HOBA high dose 10 μM, angiotensin II plus TNFα) was “did not protect”.
In the case of 15-E2-isolevuglandin [15-E2-IsoLG], the “complex II respiration” value [2] is reported as “much less affected”, the “complex I inactivation” value (complex I) is reported as 74% and the “complex II activity inhibited” value (complex II [3]) is reported as 21%. The “inhibition of state 3 respiration” value ([4]; 20 μM, five-minute treatment of isolated mitochondria, complex I substrates glutamate+malate) was 74% and the “complex I-mediated respiration” value ([4]; acute addition of a low dose (0.5 μM printed elsewhere in the source), intact mitochondria) was “significantly attenuated”.
NCc1ccccc1O [2HOBA, 2-hydroxybenzylamine] was tested, and the “Ang II-induced hypertension” value [5] was “did not attenuate”, the mitochondrial superoxide production ([1]; 50 nM, angiotensin II plus TNFα for 4-hours) was “did not affect” and the mitochondrial superoxide overproduction ([1]; cultured HAEC, concentration not stated (discussion)) was “partially attenuates”.
With O=C(O)CC(=O)O [Malonate, malonate] the “inhibition of glutamate-driven respiration” value (complex II [6]) was 58%.
